Laboratory results taken from EP0352609A1 (BIORESEARCH S.p.A., priority 1988, dated 1990).

Legend:
[1] = test system: antigen SRBC (red sheep corpuscles); assay: Delayed hypersensitivity against cell antigen (DTH); format: in vivo, Mice B6 D2 F1; settings: 1 gamma i.p. on day of immunisation
From the text: The following experimental tests were used: • 1. Primary antibody response against thymus-dependent antigen, evaluated as the number of plaque-forming splenic cells (PFC) Mice B6 D2 F1, antigen SRBC (red sheep corpuscles) Jerne N.K and Nordin A.A., Plaque formation in ager by single antibody-producing cells Science, 140, 405, 1963. Table A • 2. Delayed hypersensitivity against cell antigen (DTH) Mice B6 D2 F1, antigen SRBC (red sheep corpuscles) Lagrange P.H., Mackaness G.B and Miller T.E., potentiation of T-cell-mediated immunity by selective suppression of antibody formation with cyclophosphamide. J. Exp. Med., 139, 1529, 1974. Table B • 3. Macrophage cytotoxic activity against target tumour induced by Corynebacterium Parvum Mice C57 BL/6; tumour L1210 pretagged with ⁵¹Cr; attack:target ratio 80:1; tumouricide activity evaluated as release of tagging compound and expressed as % of specific cytotoxicity. Herscowitr H.B. et al., Eds., Manual of macrophage methodology, M. Dekker 1981. Table C • 4. Splenic NK (natural cytotoxic cell) activity potentiated with polynucleotide (Poly I:C) Mice C57 BL/6; tumour YAC-1; evaluation as in test 3. Herbeman R.B. Ed., "Natural cell-mediated immunity against tumors". Academic Press, 1980. Table D […]

[2] = test system: plaque-forming splenic cells (PFC); assay: Primary antibody response against thymus-dependent antigen (PFC, Jerne plaque assay); format: in vivo, Mice B6 D2 F1; settings: 25 gamma i.p. 6 days before immunisation
From the text: The following experimental tests were used: • 1. Primary antibody response against thymus-dependent antigen, evaluated as the number of plaque-forming splenic cells (PFC) Mice B6 D2 F1, antigen SRBC (red sheep corpuscles) Jerne N.K and Nordin A.A., Plaque formation in ager by single antibody-producing cells Science, 140, 405, 1963. Table A • 2. Delayed hypersensitivity against cell antigen (DTH) Mice B6 D2 F1, antigen SRBC (red sheep corpuscles) Lagrange P.H., Mackaness G.B and Miller T.E., potentiation of T-cell-mediated immunity by selective suppression of antibody formation with cyclophosphamide. J. Exp. Med., 139, 1529, 1974. Table B • 3. Macrophage cytotoxic activity against target tumour induced by Corynebacterium Parvum Mice C57 BL/6; tumour L1210 pretagged with ⁵¹Cr; attack:target ratio 80:1; tumouricide activity evaluated as release of tagging compound and expressed as % of specific cytotoxicity. Herscowitr H.B. et al., Eds., Manual of macrophage methodology, M. Dekker 1981. Table C • 4. Splenic NK (natural cytotoxic cell) activity potentiated with polynucleotide (Poly I:C) Mice C57 BL/6; tumour YAC-1; evaluation as in test 3. Herbeman R.B. Ed., "Natural cell-mediated immunity against tumors". Academic Press, 1980. Table D
The treatment was carried out during the inductive stage of the response.

| Substance | DTH response (Table B, continuation; column head not given) [1] | % increase in PFC/spleen vs. control [2] |
| --- | --- | --- |
| Muramyl dipeptide | 50 |  |
| Tuftsin |  | 65% |
